Like-named read-outs stand apart in the source and are kept apart here.
Columns and labels:
CLK4 = molecular target: T1, CLK4 (Homo sapiens, UniProt Q9HAZ1); test: Kinobeads two-dose competition binding: CLK4; settings: for CATDS: target CLK4;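 as to CATDS: target engagement share of this target among all targets at its Kdapp concentration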
T1 construct: to maximize the representation of endogenous proteins; endogenous in cells

ACVR1 = molecular target: T2, ACVR1 (Homo sapiens, UniProt Q04771); test: Kinobeads competition binding: ACVR1; settings: target ACVR1;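 also: target engagement share of this target among all targets at its Kdapp concentration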
T2 construct: to maximize the representation of endogenous proteins; endogenous in cells
T2 sequence (Q04771 21-509): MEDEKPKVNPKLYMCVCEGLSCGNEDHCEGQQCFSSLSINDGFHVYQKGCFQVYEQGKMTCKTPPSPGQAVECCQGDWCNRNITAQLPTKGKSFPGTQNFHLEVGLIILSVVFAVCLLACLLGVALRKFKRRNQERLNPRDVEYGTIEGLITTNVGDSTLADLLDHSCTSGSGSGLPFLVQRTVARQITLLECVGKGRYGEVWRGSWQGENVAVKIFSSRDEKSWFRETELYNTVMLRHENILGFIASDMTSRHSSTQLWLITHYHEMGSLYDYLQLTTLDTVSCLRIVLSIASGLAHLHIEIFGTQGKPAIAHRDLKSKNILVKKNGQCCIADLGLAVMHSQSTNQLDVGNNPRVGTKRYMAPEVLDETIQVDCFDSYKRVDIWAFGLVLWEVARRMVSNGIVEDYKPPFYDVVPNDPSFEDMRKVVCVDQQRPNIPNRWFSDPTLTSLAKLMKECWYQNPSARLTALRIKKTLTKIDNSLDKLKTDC
Source text: Supplement 41589_2023_1459_MOESM4_ESM.xlsx, sheet "CATDS matrix" | column: ACVR1

ADRBK1 = test: Kinobeads competition binding: ADRBK1; parameters: species or system human; settings: target ADRBK1
AIFM1 = test: Kinobeads competition binding: AIFM1; parameters: species or system human; settings: target AIFM1
CDC42 = test: Kinobeads competition binding: CDC42; parameters: species or system human; settings: target CDC42
CDK1 = test: Kinobeads competition binding: CDK1; parameters: species or system human; settings: target CDK1
CDK12 = test: Kinobeads competition binding: CDK12; parameters: species or system human; settings: target CDK12
CDK5 = molecular target: T3, CDK5 (Homo sapiens, UniProt Q00535); test: Kinobeads competition binding: CDK5; settings: target CDK5
T3 construct: endogenous in cells

DNAJA1 = test: Kinobeads competition binding: DNAJA1; parameters: species or system human; settings: target DNAJA1;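 also: share of total target engagement due to this protein at one drug concentration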
EPHB2 = molecular target: T4, EPHB2 (Homo sapiens, UniProt P29323); test: Kinobeads competition binding: EPHB2; settings: target EPHB2;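 also: target engagement share of this target among all targets at its Kdapp concentration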
T4 construct: endogenous in cells
T4 sequence (P29323 19-1055): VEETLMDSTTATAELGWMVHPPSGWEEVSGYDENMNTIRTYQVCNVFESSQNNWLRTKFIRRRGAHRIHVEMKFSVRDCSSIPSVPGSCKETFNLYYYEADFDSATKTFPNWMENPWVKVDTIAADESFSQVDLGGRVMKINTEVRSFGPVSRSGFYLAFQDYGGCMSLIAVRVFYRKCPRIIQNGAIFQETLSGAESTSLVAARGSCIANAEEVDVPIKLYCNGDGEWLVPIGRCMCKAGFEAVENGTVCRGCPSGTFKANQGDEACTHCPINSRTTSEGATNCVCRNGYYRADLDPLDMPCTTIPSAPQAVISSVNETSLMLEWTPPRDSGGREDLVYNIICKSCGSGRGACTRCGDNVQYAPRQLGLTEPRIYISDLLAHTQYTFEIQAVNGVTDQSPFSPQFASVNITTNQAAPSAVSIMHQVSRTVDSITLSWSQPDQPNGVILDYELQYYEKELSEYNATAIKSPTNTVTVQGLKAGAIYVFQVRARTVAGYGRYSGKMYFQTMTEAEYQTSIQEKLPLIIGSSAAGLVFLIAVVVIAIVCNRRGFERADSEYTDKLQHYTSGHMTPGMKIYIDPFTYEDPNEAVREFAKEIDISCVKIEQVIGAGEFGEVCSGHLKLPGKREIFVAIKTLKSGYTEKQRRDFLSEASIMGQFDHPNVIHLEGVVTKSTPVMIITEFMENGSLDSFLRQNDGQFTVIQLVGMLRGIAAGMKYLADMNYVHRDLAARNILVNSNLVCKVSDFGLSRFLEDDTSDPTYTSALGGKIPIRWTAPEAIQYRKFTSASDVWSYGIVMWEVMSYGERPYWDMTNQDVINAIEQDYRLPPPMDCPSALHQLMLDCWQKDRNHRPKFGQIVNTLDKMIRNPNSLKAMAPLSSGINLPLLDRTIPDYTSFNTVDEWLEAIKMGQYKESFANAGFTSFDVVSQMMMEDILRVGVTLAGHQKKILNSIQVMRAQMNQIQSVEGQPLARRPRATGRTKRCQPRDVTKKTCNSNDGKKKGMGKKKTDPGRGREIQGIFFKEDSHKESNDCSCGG
Source text: Supplement 41589_2023_1459_MOESM4_ESM.xlsx, sheet "CATDS matrix" | column: EPHB2

FLT4 = molecular target: T5, FLT4 (Homo sapiens, UniProt P35916); test: Kinobeads competition binding: FLT4; settings: target FLT4;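 also: share of total target engagement due to this protein at one drug concentration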
T5 construct: endogenous in cells

MAP2K1 = test: Kinobeads competition binding: MAP2K1; parameters: species or system human; settings: target MAP2K1
MAP2K6 = test: Kinobeads competition binding: MAP2K6; parameters: species or system human; settings: target MAP2K6
MAP4K2 = test: Kinobeads competition binding: MAP4K2; parameters: species or system human; settings: target MAP4K2
MAPK11 = test: Kinobeads competition binding: MAPK11; parameters: species or system human; settings: target MAPK11
NEK2 = test: Kinobeads competition binding: NEK2; parameters: species or system human; settings: target NEK2
NNT = test: Kinobeads competition binding: NNT; parameters: species or system human; settings: target NNT;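 also: share of total target engagement due to this protein at one drug concentration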
PIK3C2B = test: Kinobeads competition binding: PIK3C2B; parameters: species or system human; settings: target PIK3C2B
PKN2 = molecular target: T6, PKN2 (Homo sapiens, UniProt Q16513); test: Kinobeads competition binding: PKN2; settings: target PKN2;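 also: share of total target engagement due to this protein at one drug concentration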
T6 construct: a mixture of lysates from five cancer cell lines; endogenous in cells
Source text: Supplement 41589_2023_1459_MOESM4_ESM.xlsx, sheet "CATDS matrix" | column: PKN2

T5 sequence (P35916 25-1363): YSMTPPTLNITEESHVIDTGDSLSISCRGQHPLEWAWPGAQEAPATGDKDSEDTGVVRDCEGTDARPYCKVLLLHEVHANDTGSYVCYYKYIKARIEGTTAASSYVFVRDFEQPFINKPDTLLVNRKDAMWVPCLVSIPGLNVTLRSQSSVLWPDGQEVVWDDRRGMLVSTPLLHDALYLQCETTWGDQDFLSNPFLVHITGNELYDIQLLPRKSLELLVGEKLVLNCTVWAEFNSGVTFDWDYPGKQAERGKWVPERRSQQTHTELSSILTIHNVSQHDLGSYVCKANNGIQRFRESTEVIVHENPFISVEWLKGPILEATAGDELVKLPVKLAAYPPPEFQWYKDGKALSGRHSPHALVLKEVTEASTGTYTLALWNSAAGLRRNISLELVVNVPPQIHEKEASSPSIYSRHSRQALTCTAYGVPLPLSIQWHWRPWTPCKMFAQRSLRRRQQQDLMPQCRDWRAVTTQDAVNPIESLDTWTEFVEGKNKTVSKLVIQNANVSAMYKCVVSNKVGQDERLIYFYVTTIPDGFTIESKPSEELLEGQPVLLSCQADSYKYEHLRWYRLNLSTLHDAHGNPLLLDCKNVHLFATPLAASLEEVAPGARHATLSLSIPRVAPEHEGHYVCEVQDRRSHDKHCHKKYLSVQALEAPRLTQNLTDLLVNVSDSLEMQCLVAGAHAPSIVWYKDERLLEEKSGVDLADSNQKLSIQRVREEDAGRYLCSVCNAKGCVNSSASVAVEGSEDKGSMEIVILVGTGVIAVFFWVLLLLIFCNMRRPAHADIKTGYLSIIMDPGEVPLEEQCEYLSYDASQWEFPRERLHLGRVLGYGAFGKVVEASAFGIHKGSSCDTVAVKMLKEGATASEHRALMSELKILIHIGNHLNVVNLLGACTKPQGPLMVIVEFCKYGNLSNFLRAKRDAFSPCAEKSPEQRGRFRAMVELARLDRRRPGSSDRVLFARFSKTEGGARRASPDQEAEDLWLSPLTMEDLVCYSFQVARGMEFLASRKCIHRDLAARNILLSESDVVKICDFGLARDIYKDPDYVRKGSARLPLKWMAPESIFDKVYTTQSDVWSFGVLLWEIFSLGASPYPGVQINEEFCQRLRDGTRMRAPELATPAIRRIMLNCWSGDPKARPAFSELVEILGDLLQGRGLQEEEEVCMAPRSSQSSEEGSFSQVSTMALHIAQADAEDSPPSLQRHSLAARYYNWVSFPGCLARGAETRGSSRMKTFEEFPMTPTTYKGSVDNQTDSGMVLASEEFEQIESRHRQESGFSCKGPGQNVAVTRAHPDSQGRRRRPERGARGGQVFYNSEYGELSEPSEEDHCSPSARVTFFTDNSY
T6 sequence (Q16513 whole entry): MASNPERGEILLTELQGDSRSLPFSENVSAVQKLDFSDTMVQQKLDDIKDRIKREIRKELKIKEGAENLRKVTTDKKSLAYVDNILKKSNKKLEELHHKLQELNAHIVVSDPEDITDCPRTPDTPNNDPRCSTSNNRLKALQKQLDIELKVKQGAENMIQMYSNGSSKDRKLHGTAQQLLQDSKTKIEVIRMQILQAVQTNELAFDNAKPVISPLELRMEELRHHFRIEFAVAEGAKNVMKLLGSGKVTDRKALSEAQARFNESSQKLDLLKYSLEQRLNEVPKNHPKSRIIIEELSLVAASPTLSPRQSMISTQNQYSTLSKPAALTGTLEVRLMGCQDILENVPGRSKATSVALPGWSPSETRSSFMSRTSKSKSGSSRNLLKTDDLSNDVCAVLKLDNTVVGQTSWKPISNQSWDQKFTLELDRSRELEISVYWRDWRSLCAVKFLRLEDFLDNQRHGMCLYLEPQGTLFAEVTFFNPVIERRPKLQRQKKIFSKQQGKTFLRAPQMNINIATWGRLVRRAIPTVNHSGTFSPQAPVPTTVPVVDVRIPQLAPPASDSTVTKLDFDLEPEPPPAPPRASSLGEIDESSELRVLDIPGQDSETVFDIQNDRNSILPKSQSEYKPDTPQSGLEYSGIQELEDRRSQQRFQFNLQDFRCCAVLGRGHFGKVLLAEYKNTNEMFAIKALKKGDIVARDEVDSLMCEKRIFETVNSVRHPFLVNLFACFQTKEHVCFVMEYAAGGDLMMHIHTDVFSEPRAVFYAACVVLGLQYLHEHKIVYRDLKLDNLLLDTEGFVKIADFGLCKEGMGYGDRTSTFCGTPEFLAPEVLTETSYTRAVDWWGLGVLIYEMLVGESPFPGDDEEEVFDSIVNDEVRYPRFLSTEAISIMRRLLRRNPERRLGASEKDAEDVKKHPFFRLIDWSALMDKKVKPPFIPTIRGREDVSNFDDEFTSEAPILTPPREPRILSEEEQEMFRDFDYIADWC
T3 sequence (Q00535 whole entry): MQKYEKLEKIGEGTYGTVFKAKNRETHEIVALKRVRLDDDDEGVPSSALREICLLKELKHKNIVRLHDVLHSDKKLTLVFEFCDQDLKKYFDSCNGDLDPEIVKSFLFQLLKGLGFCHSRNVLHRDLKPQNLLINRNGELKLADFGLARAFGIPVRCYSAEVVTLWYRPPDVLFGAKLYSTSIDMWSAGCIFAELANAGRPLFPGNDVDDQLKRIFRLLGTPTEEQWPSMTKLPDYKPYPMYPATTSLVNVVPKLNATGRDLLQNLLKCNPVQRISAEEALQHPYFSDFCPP
T1 sequence (Q9HAZ1 whole entry): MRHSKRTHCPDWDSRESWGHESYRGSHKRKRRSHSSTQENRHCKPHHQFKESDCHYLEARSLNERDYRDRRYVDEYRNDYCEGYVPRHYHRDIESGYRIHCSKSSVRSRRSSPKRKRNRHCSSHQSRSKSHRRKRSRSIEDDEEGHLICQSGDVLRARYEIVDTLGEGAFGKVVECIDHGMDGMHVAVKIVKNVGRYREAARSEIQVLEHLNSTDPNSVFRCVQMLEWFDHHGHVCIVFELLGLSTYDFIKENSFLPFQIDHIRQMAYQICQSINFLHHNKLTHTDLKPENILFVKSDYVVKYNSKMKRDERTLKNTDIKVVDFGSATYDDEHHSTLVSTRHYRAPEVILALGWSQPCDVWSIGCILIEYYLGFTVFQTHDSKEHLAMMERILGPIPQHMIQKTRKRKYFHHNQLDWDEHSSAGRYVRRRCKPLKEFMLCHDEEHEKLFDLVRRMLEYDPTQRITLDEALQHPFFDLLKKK

| Structure (SMILES) | CATDS (CLK4) | CATDS (ACVR1) | CATDS (ADRBK1) | CATDS (AIFM1) | CATDS (CDC42) | CATDS (CDK1) | CATDS (CDK12) | CATDS (CDK5) | CATDS (DNAJA1) | CATDS (EPHB2) | CATDS (FLT4) | CATDS (MAP2K1) | CATDS (MAP2K6) | CATDS (MAP4K2) | CATDS (MAPK11) | CATDS (NEK2) | CATDS (NNT) | CATDS (PIK3C2B) | CATDS (PKN2) | also measured |
| --- | --- | --- | --- | --- | --- | --- | --- | --- | --- | --- | --- | --- | --- | --- | --- | --- | --- | --- | --- | --- |
| Nc1ncnc2[nH]c(-c3ccccc3)nc12 [AH5015_KCGS] | 0 | 0 | 0 | 0 | 0 | 0 | 0 | 0 | 0 | 0.02863 | 0 | 0 | 0 | 0 | 0 | 0 | 0 | 0 | 0 | potency estimated from few doses (CLK4; Kinobeads two-dose, Drugmatrix - all 2, read-out: apparent Kd CLK4): > 1000 nM |
| CCN1CCN(Cc2ccc(Nc3ncc(F)c(-c4cc(F)c5nc(C)n(C(C)C)c5c4)n3)nc2)CC1 [Abemaciclib] |  | 0 | 0 | 0 | 0 |  | 0 | 0 | 0 | 0 | 0 | 0 | 0 | 0 | 0 | 0 | 0 | 0 | 0 |  |
| CN(C)C/C=C/C(=O)Nc1cc2c(Nc3ccc(F)c(Cl)c3)ncnc2cc1O[C@H]1CCOC1 [Afatinib] | 0 | 0 |  | 0 | 0 |  | 0 |  | 0 | 0 |  |  |  |  |  |  | 0 |  | 0 |  |
| CCc1cc2c(cc1N1CCC(N3CCOCC3)CC1)C(C)(C)c1[nH]c3cc(C#N)ccc3c1C2=O [Alectinib] | 0 | 0 | 0 | 0 | 0 | 0 | 0 | 0 | 0 | 0 | 0 | 0 | 0 | 0 | 0 | 0 | 0 | 0 | 0 |  |
| N#CC1(c2ccc(NC(=O)c3cccnc3NCc3ccncc3)cc2)CCCC1 [Apatinib] | 0 | 0 | 0 | 0 | 0 | 0 | 0 | 0 | 0 | 0 | 0 | 0 | 0 | 0 | 0 | 0 | 0 | 0 | 0 |  |
| C[C@]12O[C@H](C[C@]1(O)CO)n1c3ccccc3c3c4c(c5c6ccccc6n2c5c31)CNC4=O [Lestaurtinib] |  |  |  |  |  |  |  |  |  |  |  |  |  |  |  |  |  |  |  | potency estimated from few doses (CLK4; read-out: Lestaurtinib Drugmatrix value, Gene Name CLK4): 50.2 nM |

From paper PMC11062922 (Nature Chemical Biology, 2023)
